Results: ChEMBL document CHEMBL3632591, “Discovery and structural diversity of the hepatitis C virus NS3/4A serine protease inhibitor series leading to clinical candidate IDX320” (Bioorg Med Chem Lett, 2015)

Assays:
Rhesus monkey [1] = assay: Toxicity in monkey assessed as effect on cardiovascular system at 250 mg/kg, po administered as single dose; type: organism-based, Macaca mulatta; conditions: in vivo
Cytochrome P450 2D6 = Cytochrome P450 2D6 (Homo sapiens, UniProt P10635); assay: Inhibition of human CYP2D6; type: ADME
[2] = Plasma concentration in Cynomolgus monkey at 2 mg/kg, po administered as single dose measured after 24 hrs; type: ADME, organism-based, Macaca fascicularis
[3] = Cmax in Sprague-Dawley rat plasma at 10 mg/kg, po administered as single dose measured after 24 hrs; type: ADME, organism-based; parameters: dose 10 mg/kg, route oral
[4] = Cytotoxicity against human HuH7 cells by colorimetric proliferation assay; type: cell-based, Huh-7
[5] = Cytotoxicity against human hepatocytes; type: cell-based, Hepatocyte
[6] = Inhibition of HCV genotype 2a NS3/4A protease; parameters: species or system Hepatitis C virus subtype 2a
[7] = Inhibition of HCV genotype 1a NS3/4A protease; parameters: species or system Hepatitis C virus subtype 1a
[8] = Tmax in Sprague-Dawley rat at 2 mg/kg, iv administered as single dose; type: ADME, organism-based; conditions: in vivo
[9] = Clearance in Cynomolgus monkey at 2 mg/kg, iv administered as single dose; type: ADME, organism-based, Macaca fascicularis; conditions: in vivo
[10] = Half life in CD-1 mouse at 2 mg/kg, iv administered as single dose measured after 24 hrs; type: ADME, organism-based; conditions: in vivo
Mus musculus [11] = assay: Toxicity in mouse assessed as effect on renal function at 250 mg/kg, po administered as single dose; type: organism-based; conditions: in vivo
[12] = Volume of distribution in CD-1 mouse at 2 mg/kg, iv administered as single dose measured after 24 hrs; type: ADME, organism-based; conditions: in vivo
Mus musculus [13] = assay: Toxicity in mouse assessed as effect on central nervous system at 250 mg/kg, po administered as single dose; type: organism-based; conditions: in vivo
[14] = Cmax in Cynomolgus monkey at 2 mg/kg, po administered as single dose; type: ADME, organism-based, Macaca fascicularis; parameters: dose 2 mg/kg, route oral; conditions: in vivo
[15] = Cytotoxicity against rat hepatocytes; type: cell-based, Hepatocyte
[16] = AUC (infinity) in Cynomolgus monkey at 2 mg/kg, iv administered as single dose; type: ADME, organism-based, Macaca fascicularis; parameters: dose 2 mg/kg, route intravenous, time infinity; conditions: in vivo
Mus musculus [17] = assay: Toxicity in mouse assessed as effect on gastrointestinal motility at 250 mg/kg, po administered as single dose; type: organism-based; conditions: in vivo
[18] = Inhibition of HCV genotype 4a NS3/4A protease; parameters: species or system Hepatitis C virus subtype 4a
[19] = Half life in Sprague-Dawley rat at 2 mg/kg, iv administered as single dose; type: ADME, organism-based; conditions: in vivo
[20] = Inhibition of cellular protease (unknown origin); conditions: Homo sapiens
[21] = AUC (infinity) in Sprague-Dawley rat at 10 mg/kg, po administered as single dose; type: ADME, organism-based; parameters: dose 10 mg/kg, time infinity, route oral; conditions: in vivo
[22] = Tmax in CD-1 mouse at 2 mg/kg, po administered as single dose; type: ADME, organism-based; conditions: in vivo
[23] = AUC (0 to 24 hrs) in CD-1 mouse at 2 mg/kg, iv administered as single dose measured after 24 hrs; type: ADME, organism-based; parameters: time < 24 hr, dose 2 mg/kg, route intravenous; conditions: in vivo
[24] = Half life in Cynomolgus monkey at 2 mg/kg, po administered as single dose; type: ADME, organism-based, Macaca fascicularis; conditions: in vivo
[25] = Cmax in CD-1 mouse at 2 mg/kg, po administered as single dose; type: ADME, organism-based; parameters: dose 2 mg/kg, route oral; conditions: in vivo
Rhesus monkey [26] = assay: Toxicity in monkey assessed as effect on respiratory system at 250 mg/kg, po administered as single dose; type: organism-based, Macaca mulatta; conditions: in vivo
[27] = Cytotoxicity against monkey hepatocytes; type: cell-based, Macaca mulatta, Hepatocyte; conditions: rhesus monkey
[28] = AUCt in Sprague-Dawley rat at 2 mg/kg, iv administered as single dose; type: ADME, organism-based; conditions: in vivo
[29] = Cmax in Sprague-Dawley rat plasma at 2 mg/kg, iv administered as single dose measured after 8 hrs; type: ADME, organism-based; parameters: dose 2 mg/kg, route intravenous
[30] = Half life in Sprague-Dawley rat at 10 mg/kg, po administered as single dose; type: ADME, organism-based; conditions: in vivo
[31] = Clearance in Sprague-Dawley rat at 2 mg/kg, iv administered as single dose; type: ADME, organism-based; conditions: in vivo
[32] = AUC (infinity) in Sprague-Dawley rat at 2 mg/kg, iv administered as single dose; type: ADME, organism-based; parameters: dose 2 mg/kg, route intravenous, time infinity; conditions: in vivo
[33] = Tmax in Sprague-Dawley rat at 10 mg/kg, po administered as single dose; type: ADME, organism-based; conditions: in vivo
[34] = Clearance in CD-1 mouse at 2 mg/kg, iv administered as single dose measured after 24 hrs; type: ADME, organism-based; conditions: in vivo
[35] = Volume of distribution in Cynomolgus monkey at 2 mg/kg, iv administered as single dose; type: ADME, organism-based, Macaca fascicularis; conditions: in vivo
[36] = Ratio of drug level in Sprague-Dawley rat liver to plasma at 10 mg/kg, po measured at 24 hrs; type: ADME, organism-based; conditions: liver and plasma
Hepatitis C virus = assay: Antiviral activity against HCV genotype 1b infected in human HuH7 cells after 3 days by luciferase assay; type: functional, organism-based, Hepacivirus hominis; conditions: Huh-7, 72 h
Cytochrome P450 2C9 = Cytochrome P450 2C9 (Homo sapiens, UniProt P11712); assay: Inhibition of human CYP2C9; type: ADME
[37] = Oral bioavailability in Cynomolgus monkey at 2 mg/kg administered as single dose; type: ADME, organism-based, Macaca fascicularis; conditions: in vivo
[38] = target: Voltage-gated inwardly rectifying potassium channel KCNH2 (Homo sapiens, UniProt Q12809); assay: Inhibition of human ERG expressed in HEK293 cells; type: cell-based
[39] = AUC (infinity) in Cynomolgus monkey at 2 mg/kg, po administered as single dose; type: ADME, organism-based, Macaca fascicularis; parameters: dose 2 mg/kg, route oral, time infinity; conditions: in vivo
[40] = Plasma concentration in CD-1 mouse at 2 mg/kg, iv administered as single dose measured after 24 hrs; type: ADME, organism-based
Cytochrome P450 1A2 = target: T1, Cytochrome P450 1A2 (Homo sapiens, UniProt P05177); assay: Inhibition of human CYP1A2; type: ADME
T1 sequence (P05177 whole entry): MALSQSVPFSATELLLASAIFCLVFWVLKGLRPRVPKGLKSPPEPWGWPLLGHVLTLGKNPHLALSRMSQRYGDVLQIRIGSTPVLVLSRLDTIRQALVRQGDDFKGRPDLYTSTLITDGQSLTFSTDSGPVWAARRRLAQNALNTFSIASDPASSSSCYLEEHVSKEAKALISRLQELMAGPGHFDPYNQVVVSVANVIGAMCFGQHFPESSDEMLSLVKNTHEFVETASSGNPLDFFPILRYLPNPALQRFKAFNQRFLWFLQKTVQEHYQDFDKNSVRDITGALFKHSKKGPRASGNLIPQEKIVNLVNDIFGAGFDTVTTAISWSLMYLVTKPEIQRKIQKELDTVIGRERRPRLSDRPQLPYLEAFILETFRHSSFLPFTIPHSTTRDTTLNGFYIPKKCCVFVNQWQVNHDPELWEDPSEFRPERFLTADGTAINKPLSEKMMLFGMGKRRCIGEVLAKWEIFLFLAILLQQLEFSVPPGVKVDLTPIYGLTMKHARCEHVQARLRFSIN

[41] = Oral bioavailability in CD-1 mouse at 2 mg/kg administered as single dose; type: ADME, organism-based; conditions: in vivo

Sequence of Cytochrome P450 2C9 (P11712 whole entry): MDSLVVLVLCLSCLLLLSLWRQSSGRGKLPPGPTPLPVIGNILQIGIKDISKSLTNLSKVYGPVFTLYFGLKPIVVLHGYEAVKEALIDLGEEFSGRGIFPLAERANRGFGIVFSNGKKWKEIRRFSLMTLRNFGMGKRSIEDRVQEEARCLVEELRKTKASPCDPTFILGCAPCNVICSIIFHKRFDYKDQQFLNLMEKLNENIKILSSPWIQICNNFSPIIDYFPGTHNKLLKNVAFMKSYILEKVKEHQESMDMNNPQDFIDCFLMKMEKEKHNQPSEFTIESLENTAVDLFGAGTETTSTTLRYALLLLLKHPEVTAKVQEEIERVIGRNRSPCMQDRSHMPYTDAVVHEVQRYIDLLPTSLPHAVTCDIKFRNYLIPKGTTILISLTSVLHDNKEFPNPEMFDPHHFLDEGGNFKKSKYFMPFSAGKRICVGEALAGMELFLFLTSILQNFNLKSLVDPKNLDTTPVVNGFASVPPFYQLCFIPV
Sequence of Voltage-gated inwardly rectifying potassium channel KCNH2 (Q12809 whole entry): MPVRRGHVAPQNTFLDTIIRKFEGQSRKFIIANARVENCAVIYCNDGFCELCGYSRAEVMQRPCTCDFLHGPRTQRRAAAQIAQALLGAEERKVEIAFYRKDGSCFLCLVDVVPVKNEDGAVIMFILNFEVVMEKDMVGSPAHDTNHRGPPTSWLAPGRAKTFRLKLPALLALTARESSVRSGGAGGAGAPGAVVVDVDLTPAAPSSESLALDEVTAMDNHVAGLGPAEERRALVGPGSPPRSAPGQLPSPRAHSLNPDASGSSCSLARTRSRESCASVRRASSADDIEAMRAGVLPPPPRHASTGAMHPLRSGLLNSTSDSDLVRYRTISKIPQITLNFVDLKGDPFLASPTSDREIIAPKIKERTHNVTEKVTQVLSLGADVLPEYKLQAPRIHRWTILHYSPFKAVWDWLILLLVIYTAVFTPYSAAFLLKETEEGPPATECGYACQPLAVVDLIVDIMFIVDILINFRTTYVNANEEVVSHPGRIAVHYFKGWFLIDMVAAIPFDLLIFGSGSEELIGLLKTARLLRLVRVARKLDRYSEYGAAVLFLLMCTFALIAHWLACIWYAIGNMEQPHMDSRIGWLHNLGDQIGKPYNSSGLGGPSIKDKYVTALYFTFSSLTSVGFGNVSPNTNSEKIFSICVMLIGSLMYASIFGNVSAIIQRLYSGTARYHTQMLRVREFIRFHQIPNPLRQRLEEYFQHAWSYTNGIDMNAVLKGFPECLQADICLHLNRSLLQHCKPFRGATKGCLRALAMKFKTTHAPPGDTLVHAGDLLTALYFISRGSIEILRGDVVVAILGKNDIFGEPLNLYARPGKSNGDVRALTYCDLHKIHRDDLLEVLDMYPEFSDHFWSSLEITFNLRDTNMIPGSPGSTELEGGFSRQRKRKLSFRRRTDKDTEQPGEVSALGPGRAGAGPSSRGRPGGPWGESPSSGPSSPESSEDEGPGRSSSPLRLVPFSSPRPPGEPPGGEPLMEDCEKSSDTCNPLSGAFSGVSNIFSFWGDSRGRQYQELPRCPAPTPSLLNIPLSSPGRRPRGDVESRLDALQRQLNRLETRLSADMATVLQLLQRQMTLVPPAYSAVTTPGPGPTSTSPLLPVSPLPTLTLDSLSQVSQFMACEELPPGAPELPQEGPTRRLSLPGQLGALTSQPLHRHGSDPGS
Sequence of Cytochrome P450 2D6 (P10635 whole entry): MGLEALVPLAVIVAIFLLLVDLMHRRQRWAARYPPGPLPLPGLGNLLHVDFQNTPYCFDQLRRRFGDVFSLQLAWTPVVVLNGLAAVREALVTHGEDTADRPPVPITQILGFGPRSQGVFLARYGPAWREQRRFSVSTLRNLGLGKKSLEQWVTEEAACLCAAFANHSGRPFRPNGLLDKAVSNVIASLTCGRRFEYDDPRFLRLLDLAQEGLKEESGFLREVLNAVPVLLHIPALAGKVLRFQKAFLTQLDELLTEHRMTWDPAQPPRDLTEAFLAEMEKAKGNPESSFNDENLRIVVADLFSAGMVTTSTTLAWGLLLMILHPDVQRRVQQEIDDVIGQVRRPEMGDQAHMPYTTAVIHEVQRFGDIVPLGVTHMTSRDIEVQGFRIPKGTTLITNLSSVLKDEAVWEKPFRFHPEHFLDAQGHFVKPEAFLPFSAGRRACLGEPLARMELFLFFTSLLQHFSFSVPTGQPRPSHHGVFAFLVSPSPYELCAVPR

- IC50 (Cytochrome P450 2D6): ≥ 10 µM
- concentration at 24 h [2]: 81 ng/mL
- Cmax [3]: 934 ng/mL
- IC50 [6]: 0.0008 µM
- IC50 [7]: 0.0008 µM
- Tmax [8]: 4.8 min
- clearance [9]: 3.83 mL/min/kg
- half-life [10]: 6.3 h
- Vd [12]: 4.4 L/kg
- Cmax [14]: 1030 ng/mL
- AUC(0-inf) [16]: 9580 ng·h/mL
- IC50 [18]: 0.0008 µM
- half-life [19]: 1.5 h
- IC50 [20]: > 10 µM
- AUC(0-inf) [21]: 3970 ng·h/mL
- Tmax [22]: 2 h
- AUC(0-t) at 24 h [23]: 4060 ng·h/mL
- half-life [24]: 7.6 h
- Cmax [25]: 174 ng/mL
- AUC(0-t) [28]: 1750 ng·h/mL
- Cmax [29]: 2060 ng/mL
- half-life [30]: 3.6 h
- clearance [31]: 18.8 mL/min/kg
- AUC(0-inf) [32]: 1770 ng·h/mL
- Tmax [33]: 1 h
- clearance [34]: 8 mL/min/kg
- Vd [35]: 3.5 L/kg
- Kp at 24 h [36]: 61.7
- EC50 (Hepatitis C virus): 0.0007 µM
- IC50 (Cytochrome P450 2C9): ≥ 10 µM
- bioavailability [37]: 107%
- AUC(0-inf) [39]: 8920 ng·h/mL
- concentration at 24 h [40]: 7.9 ng/mL
- IC50 (Cytochrome P450 1A2): ≥ 10 µM
- bioavailability [41]: 34.7%
SMILES: COc1ccc2c(O[C@H]3CCN4C(=O)N(C)CCCCC=C[C@@H]5C[C@@]5(C(=O)NS(=O)(=O)C5(C)CC5)NC(=O)[C@@H]4C3)cc(-c3nc(C(F)(F)F)cs3)nc2c1C
- Activity (Rhesus monkey [1]): Non-toxic
- CC50 [4]: 52.8 µM
- CC50 [5]: > 10 µM
- Activity (Mus musculus [11]): Non-toxic
- Activity (Mus musculus [13]): Non-toxic
- CC50 [15]: > 10 µM
- Activity (Mus musculus [17]): Non-toxic
- Activity (Rhesus monkey [26]): Non-toxic
- CC50 [27]: > 10 µM
- inhibition (INH) [38]: Not Active
